Measurements reported in paper PMC9848257, “Design and synthesis of novel rigid dibenzo[b,f]azepines through ring closure technique as promising anticancer candidates against leukaemia and acting as selective topoisomerase II inhibitors and DNA intercalators” (Journal of Enzyme Inhibition and Medicinal Chemistry, 2023).

Legend:
SR cells [1] = experiment: Cell cycle analysis (propidium iodide staining); assay type: cell-based
Description: This test was performed using propidium iodide (PI) staining following the detailed procedure in the supporting information (SI 3)[38].
The topoisomerase II inhibitory evaluation, besides the cytotoxicity results of the new compounds, encouraged us to assess the effect of 5e (the most promising candidate) on cell cycle progression in SR cells.
(§1) SI 3. Cell cycle analysis
(§2) Leukemia SR cells were grown in six-well plates (each one contains 2 x 10^5 cells per well) containing 10% fetal bovine serum and incubated for 24 h at 37 °C and 5% CO2. The medium was replaced with (DMSO 1% v/v) containing the 3.1 µM of compound 5e, then incubated for 48 h, collected and washed with cold phosphate buffered saline (PBS). After fixation of the collected cells with ice-cold absolute ethanol (70%), the cells were rinsed with PBS then stained with the DNA fluorochrome PI, kept for 15 min at 37 °C. Then samples were analyzed with a FACS Caliber flow cytometer.
(§3) SI 4. Detection of apoptosis
(§4) Apoptotic activity of compound 5e was evaluated using Annexin V-FITC/PI apoptosis detection kit.
(§5) Leukemia SR cells ([…]) were seeded and incubated with compound 5e for 48 h, trypsinized, collected and washed with phosphate-buffered saline (PBS) several times; SR cells were stained with Annexin V fluorescein isothiocyanate (FITC) and counterstained with propidium iodide (PI) for 15 min at 37 °C in the dark using the apoptosis detection kit (BD Biosciences, San Jose, CA) according to the manufacturer's protocol. Then, Annexin V-FITC and PI binding were analysed by a FACS Caliber flow cytometer.
(§6) SI 5.1. Animals and tumor cell line
(§7) Adult female Swiss albino mice purchased from Theodor Bilharzia Research Institute, Giza, Egypt, with an average body weight of (18-23) g was used. Mice were housed under constant conditions of 12 h light/dark cycle in a […], with free access to standard laboratory mice food and water. […]

SR cells [2] = experiment: Apoptosis analysis (Annexin-V staining assay); assay type: cell-based
Description: The apoptotic analysis was performed according to the detailed description in the supporting information (SI 4)[39].
Annexin-V staining assay was applied to determine the apoptosis induced by compound 5e. […] In detail, 13.61% and 24.33% for the early phase and late phase of apoptosis, respectively, with respect to the control (0.44%, and 0.16%, respectively). Annexin V/PI staining histograms are supported in the supporting information (Figure SI 2).
as §1, §2, §3, §4, §5, §6, §7

[3] = Liver enzymes (ALT, AST) in SEC-bearing mice; assay type: in vivo, Swiss albino mice; conditions: 6 mg/Kg B.W., IP
Description: (§8) The full methodology of tumour induction, treatments, and blood measurements was carried out according to the described details in the supporting information (SI 5). Moreover, the experimental protocol was approved by the Research Ethics Committee at Suez Canal University (Approval number REC139/2022, Chemistry Department, Faculty of Science, Suez Canal University). […]
(§9) that were I.P. implanted into each normal mouse. SEC cells (1 × 10^6 tumor cells/mouse) were implanted subcutaneously into the right thigh of the hind limb.
(§10) The experimental animals were randomly divided into four groups. Group 1 served as the normal saline control. Group 2 served as the SEC control (1 × 10^6 cells/mouse). Group 3 served as the compound-treated group (6 mg/kg B.Wt., I.P.). Group 4 received the standard anticancer drug of […]
survival were recorded daily until the 24th day in both treated and control groups. At the end of experiment, the blood of each group was collected under light anesthesia for estimation of hematological and biochemical assays. The anesthetized animals were then sacrificed for evaluation of the antitumor activity and histopathological examination. […]
At the end of the experiment, animals from different groups were sacrificed, and blood samples were collected for determination of liver enzymes ALT, AST levels. Activities of aspartate aminotransferase (AST) and alanine aminotransferase (ALT) were evaluated using commercial kits (ELITech clinical systems, France). […]

leukaemia SR cells = experiment: Anti-proliferative effect against SR cell line (MTT assay); assay type: cell-based
Description: The anti-proliferative effect of the 5e counterpart against the SR cell line was estimated using the MTT assay protocol.
Depending on the previous results, the cytotoxic activity of the designed candidate 5e was then evaluated against leukaemia SR cells. Doxorubicin was also evaluated as a reference drug.

[4] = tested on: Solid Ehrlich carcinoma (SEC); experiment: In vivo anti-tumour activity in SEC-bearing mice; set-up: species or system Swiss albino mice; conditions: 6 mg/Kg B.W., IP
Description: as §8, §6
Adult female Swiss albino mice purchased from Theodor Bilharzia Research Institute, Giza, Egypt, with an average body weight of (18-23) g was used. Mice were housed under constant conditions of 12 h light/dark cycle in a […], with free access to standard laboratory mice food and water.
All procedures related to care and maintenance of the animals were performed according to the international guiding principles for animal research and approved by Faculty of Science, Suez Canal University bioethics and animal ethics committee (Approval number REC-01-2022).
Solid Ehrlich carcinoma (SEC) were got from the National Cancer Institute (Cairo University, Egypt). The tumor cell line was proliferated in mice through serial intraperitoneal (I.P.) transplantation of a volume of 0.2 mL physiological saline contains 1 × 10^6 viable cells for 24 h. SEC cells were collected 7 days after I.P. implantation. The harvested cells were diluted with saline to obtain a concentration of 5 × 10^6 viable SEC cells/mL. A volume of 0.2 mL saline contains 1 × 10^6 SEC cells […]
as §9, §10
survival were recorded daily until the 24th day in both treated and control groups. At the end of experiment, the blood of each group was collected under light anesthesia for estimation of hematological and biochemical assays. The anesthetized animals were then sacrificed for evaluation of the antitumor activity and histopathological examination.
SI 5.2. Antitumor potentiality
It includes tumor volume, weight, and tumor inhibition ration (TIR%). Time interval measurements of tumor volume using digital Vernier caliper (Tricle Brand, Shanghai, China). Measure tumor length and width using clipper and then calculate tumor volume using formulations V = (L x W x W)/2, where V is tumor volume, W is tumor width, L is tumor length. While TIR% was calculated according to the following equation: […]. […]

O=[N+]([O-])c1ccc(-c2nnc(N3c4ccccc4C=Cc4ccccc43)o2)cc1 [Compound 5e, 2-(5 h-Dibenzo[b,f]azepin-5-yl)-5–(4-nitrophenyl)-1,3,4-oxadiazole]
Cell cycle arrest phase (SR cells [1]): G1 phase
Cell levels in G1 phase (SR cells [1]; 3.1 µM of compound 5e, 48 h, control 52.84%): 61.29%
S phase % of the examined cells (SR cells [1]; 3.1 µM of compound 5e, 48 h, untreated 34.18%): 36.86%
Increase of the apoptosis ratio compared to the untreated cells (SR cells [2]; concentration equivalent to IC50 (13.05 µM), 48 h): 37.34%
Late phase of apoptosis (SR cells [2]; concentration equivalent to IC50, control 0.16%): 24.33%
Early phase of apoptosis (SR cells [2]; concentration equivalent to IC50, control 0.44%): 13.61%
ALT ([3]; SEC control 65.9 U/L): 39.8 U/L
AST ([3]; SEC control 71 U/L): 35.6 U/L
IC50 (leukaemia SR cells; Homo sapiens, leukaemia SR cells, unit as in head of Table 3, read-out: Cytotoxicity IC50, SR): 13.1 ± 0.62 µM
SI (selectivity index) (leukaemia SR cells; normal cell line PSC-800-011 versus SR): 3.36
Tumour inhibition ratio (TIR%) [4]: 62.7%
Solid tumour mass ([4]; SEC control 226 mg): 96.3 mg
Tumour volume ([4]; SEC control 80.6 mm^3): 30.1 mm^3
